Experiment [1] has as its system Mus musculus. The experiment can be described thus: Effect on rectal temperature in mice at dose of 2.5 mg/kg sc. It is filed as functional.
The species named for experiment [2] is Mus musculus. Nature of the experiment: Effect in the social interaction behavioral test in mice. It is filed as functional.
The test system of experiment [3] is Mus musculus. The experiment can be described thus: Effect on rectal temperature in mice at dose of 5 mg/kg sc. It is filed as functional.
Experiment [4] concerns Mus musculus. Nature of the experiment: Effect on rectal temperature in mice at dose of 10 mg/kg sc. In kind it is functional.
Experiment [5] deals with Mus musculus. Nature of the experiment: Effect on rectal temperature in mice at dose of 0.5 mg/kg sc. It is filed as functional.
In experiment [6] the target is T1, 5-hydroxytryptamine receptor 1A (Rattus norvegicus, UniProt P19327).
T1 sequence (P19327 whole entry): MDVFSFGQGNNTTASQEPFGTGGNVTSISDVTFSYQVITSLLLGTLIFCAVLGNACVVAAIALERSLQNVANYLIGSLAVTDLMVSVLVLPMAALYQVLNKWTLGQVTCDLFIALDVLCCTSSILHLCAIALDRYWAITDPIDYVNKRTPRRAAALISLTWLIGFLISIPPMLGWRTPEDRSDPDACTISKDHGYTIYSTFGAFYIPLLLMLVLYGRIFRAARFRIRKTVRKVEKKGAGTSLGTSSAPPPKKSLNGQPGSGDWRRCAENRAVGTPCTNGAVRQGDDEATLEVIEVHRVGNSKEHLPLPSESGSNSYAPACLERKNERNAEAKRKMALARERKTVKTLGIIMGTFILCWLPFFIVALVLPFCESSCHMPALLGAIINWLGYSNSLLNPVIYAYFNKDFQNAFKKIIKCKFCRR
Nature of the experiment: Binding affinity towards rat 5-hydroxytryptamine 1A receptor using [3H]8-OH-DPAT radioligand.

Experiment [7] concerns Mus musculus. The experiment can be described thus: Effect on rectal temperature in mice at dose of 20 mg/kg sc. In kind it is functional.
In experiment [8] the test system is Mus musculus. The experiment can be described thus: Effect on rectal temperature in mice at dose of 30 mg/kg po. In kind it is functional.
Experiment [9] addresses T2, Adrenergic receptor alpha-1 (Rattus norvegicus, UniProt P15823+P23944+P43140).
T2 sequence (P15823 whole entry): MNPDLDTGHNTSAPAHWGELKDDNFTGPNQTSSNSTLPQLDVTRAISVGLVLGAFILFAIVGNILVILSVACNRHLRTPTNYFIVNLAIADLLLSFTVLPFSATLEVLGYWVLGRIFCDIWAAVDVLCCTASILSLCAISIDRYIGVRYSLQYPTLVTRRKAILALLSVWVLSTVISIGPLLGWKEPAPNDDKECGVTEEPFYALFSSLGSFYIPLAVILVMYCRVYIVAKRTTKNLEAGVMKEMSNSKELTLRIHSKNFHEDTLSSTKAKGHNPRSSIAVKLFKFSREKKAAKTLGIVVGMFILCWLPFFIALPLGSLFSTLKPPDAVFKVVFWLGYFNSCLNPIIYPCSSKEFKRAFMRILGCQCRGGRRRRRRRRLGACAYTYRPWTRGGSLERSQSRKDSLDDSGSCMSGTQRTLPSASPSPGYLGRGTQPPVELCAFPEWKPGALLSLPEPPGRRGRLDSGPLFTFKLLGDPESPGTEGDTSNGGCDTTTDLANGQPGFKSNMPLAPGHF
T2 sequence (P23944 whole entry): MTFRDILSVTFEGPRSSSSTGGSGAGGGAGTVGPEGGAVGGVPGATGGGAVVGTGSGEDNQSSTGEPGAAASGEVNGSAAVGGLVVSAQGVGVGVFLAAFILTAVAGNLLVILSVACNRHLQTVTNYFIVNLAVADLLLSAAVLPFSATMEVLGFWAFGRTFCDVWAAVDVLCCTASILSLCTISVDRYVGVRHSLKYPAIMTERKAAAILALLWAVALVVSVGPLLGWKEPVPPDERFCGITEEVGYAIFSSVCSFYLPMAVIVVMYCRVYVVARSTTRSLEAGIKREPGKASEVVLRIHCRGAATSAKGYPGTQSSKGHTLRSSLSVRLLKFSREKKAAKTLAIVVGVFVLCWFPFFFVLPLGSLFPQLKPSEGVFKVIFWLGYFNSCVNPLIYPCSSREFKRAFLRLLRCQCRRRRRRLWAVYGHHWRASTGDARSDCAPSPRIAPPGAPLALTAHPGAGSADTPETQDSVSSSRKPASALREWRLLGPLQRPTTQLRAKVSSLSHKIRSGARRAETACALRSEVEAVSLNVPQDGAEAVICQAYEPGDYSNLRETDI
T2 sequence (P43140 whole entry): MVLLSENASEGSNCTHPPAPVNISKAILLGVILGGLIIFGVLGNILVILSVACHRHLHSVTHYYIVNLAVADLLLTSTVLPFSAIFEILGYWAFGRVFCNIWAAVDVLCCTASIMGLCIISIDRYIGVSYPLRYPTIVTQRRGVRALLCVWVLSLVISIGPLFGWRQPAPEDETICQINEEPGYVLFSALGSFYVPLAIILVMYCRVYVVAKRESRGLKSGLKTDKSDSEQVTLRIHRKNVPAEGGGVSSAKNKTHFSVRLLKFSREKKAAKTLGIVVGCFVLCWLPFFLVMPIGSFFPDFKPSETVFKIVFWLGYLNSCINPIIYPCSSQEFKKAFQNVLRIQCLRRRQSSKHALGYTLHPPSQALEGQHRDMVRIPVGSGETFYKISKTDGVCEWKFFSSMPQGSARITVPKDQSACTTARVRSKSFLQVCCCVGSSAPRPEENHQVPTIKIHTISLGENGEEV
The experiment can be described thus: Binding affinity towards alpha-1 adrenergic receptor using [3H]prazosin radioligand. It is filed as protein assay.

For experiment [10], the system named is Mus musculus. Nature of the experiment: Effect on rectal temperature in mice at dose of 20 mg/kg po. In kind it is functional.
Experiment [11] deals with Mus musculus. Nature of the experiment: Effect on rectal temperature in mice at dose of 40 mg/kg po. It is filed as functional.
In experiment [12] the test system is Mus musculus. Nature of the experiment: Effect on rectal temperature in mice at dose of 10 mg/kg po. It is filed as functional.
In experiment [13] the target is D(2) dopamine receptor (Rattus norvegicus, UniProt P61169). Nature of the experiment: Binding affinity towards dopamine receptor D2 using [3H]-raclopride radioligand.
In experiment [14] the target is 5-hydroxytryptamine receptor 2A (Rattus norvegicus, UniProt P14842). The experiment can be described thus: Compound was evaluated for the binding affinity towards 5-hydroxytryptamine 2A receptor using [3H]ketanserin radioligand.
Chain of 5-hydroxytryptamine receptor 2A (P14842 whole entry): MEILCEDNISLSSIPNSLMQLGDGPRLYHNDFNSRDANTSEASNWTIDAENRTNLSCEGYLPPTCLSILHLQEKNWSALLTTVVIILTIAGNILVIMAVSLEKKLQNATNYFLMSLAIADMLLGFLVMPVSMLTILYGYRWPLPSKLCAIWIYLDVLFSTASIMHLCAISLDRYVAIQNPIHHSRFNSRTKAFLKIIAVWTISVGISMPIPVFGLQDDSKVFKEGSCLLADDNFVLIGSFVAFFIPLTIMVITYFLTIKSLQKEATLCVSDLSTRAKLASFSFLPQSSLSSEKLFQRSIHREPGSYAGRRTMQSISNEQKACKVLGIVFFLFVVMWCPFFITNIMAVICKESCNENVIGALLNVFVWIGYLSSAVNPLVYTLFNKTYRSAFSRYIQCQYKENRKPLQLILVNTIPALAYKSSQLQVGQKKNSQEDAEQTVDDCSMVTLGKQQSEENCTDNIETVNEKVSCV

Chain of D(2) dopamine receptor (P61169 whole entry): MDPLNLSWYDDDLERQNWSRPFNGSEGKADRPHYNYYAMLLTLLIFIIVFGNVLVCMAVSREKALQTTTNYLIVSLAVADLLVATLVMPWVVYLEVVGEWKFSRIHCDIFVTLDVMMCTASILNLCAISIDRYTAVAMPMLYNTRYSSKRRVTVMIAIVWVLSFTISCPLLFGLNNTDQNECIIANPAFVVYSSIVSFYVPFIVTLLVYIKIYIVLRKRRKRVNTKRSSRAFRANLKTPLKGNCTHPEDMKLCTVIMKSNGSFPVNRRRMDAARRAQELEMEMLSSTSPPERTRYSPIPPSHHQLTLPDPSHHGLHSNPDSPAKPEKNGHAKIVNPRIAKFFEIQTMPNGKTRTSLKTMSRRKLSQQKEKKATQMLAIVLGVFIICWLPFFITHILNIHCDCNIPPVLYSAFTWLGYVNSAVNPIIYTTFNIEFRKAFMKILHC

Regarding `CCCN(CCC)C1CCc2cccc(O)c2C1` (centres undefined) [8-OH-DPAT], the T decrease is -1.7 °C in experiment [1], -1.66 °C in experiment [3], -2.26 °C in [4] and -0.9 °C in experiment [5]. Moreover, the 50% effect level in experiment [2] (ED50) was put at a dose of 0.58 mg/kg. This molecule also came in with a Max effect in experiment [2] of 132.2 s.

On to `COc1ccccc1N1CCN(CN2C(=O)C3CCCCN3C2=O)CC1` (centres undefined), for which the Ki in experiment [6] is 31.7 nM; in experiment [9], greater than 1000 nM; in [13], greater than 10000 nM; in experiment [14] it was greater than 1000 nM. Moreover, the T decrease in [1] is 0.06 °C; in [7], -1.56 °C; in experiment [8] it was -0.28 °C; in experiment [10], 0.22 °C; in experiment [11] it was -0.85 °C; in experiment [3], -0.78 °C. The T decrease was -1.46 °C in experiment [4], -0.3 °C in experiment [12] and 0.37 °C in experiment [5]. Also, the median effective dose (ED50) in [2] amounted to 3.58 mg/kg. The Max effect in [2] came out at 130.8 s.

Regarding `O=C1C2CCCCN2C(=O)N1CCCCN1CCN(c2cccc(C(F)(F)F)c2)CC1` (centres undefined), the Ki in [6] came out at 9.9 nM; in experiment [9], 72.4 nM; in [13], 90.6 nM. Further, the T decrease in experiment [1] was -0.77 °C; in [7], -2.73 °C; in experiment [8], -1.23 °C; in experiment [10], -0.55 °C; in experiment [11] it was -1 °C; in experiment [3] it was -0.92 °C. Also, the figures for the T decrease in experiment [4], in experiment [12] and in [5] were -1.55 °C, 0.07 °C and -0.58 °C, respectively. In [2], this molecule registered an ED50 of 1.25 mg/kg. This molecule had a Max effect in experiment [2] of 56.5 s.

Take `O=C1C2CCCN2C(=O)N1CCN1CCN(c2ccccc2)CC1` (centres undefined): the Ki in [6], in experiment [9] and in experiment [13] was greater than 1000 nM each time.

In the case of `O=C1C2CCCN2C(=O)N1CN1CCN(c2cccc(C(F)(F)F)c2)CC1` (centres undefined), the Ki in experiment [6] was 120 nM; in experiment [9], greater than 1000 nM; in experiment [13] it was greater than 1000 nM.

For `O=C1C2CCCCN2C(=O)N1CCCN1CCN(c2cccc(C(F)(F)F)c2)CC1` (centres undefined), the inhibition constant (Ki) is 5.7 nM in experiment [6], 90.4 nM in experiment [9] and greater than 1000 nM in experiment [13].

Regarding `O=C1C2CCCCN2C(=O)N1CCCCN1CCN(c2cccc(Cl)c2)CC1` (centres undefined), the Ki worked out at 7.2 nM in experiment [6], 12.1 nM in experiment [9] and 129 nM in experiment [13].

As for `O=C1C2CCCN2C(=O)N1CCCCN1CCN(c2ccccc2)CC1` (centres undefined), the values for the Ki in experiment [6], in experiment [9] and in [13] were 24.8 nM, 26.4 nM and 416 nM, respectively.

Regarding `O=C1C2CCCCN2C(=O)N1CCN1CCN(c2ccc([N+](=O)[O-])cc2)CC1` (centres undefined), the Ki in [6], in experiment [9] and in experiment [13] was greater than 10000 nM in each case.

As to `COc1ccccc1N1CCN(CCCCN2C(=O)C3CCCN3C2=O)CC1` (centres undefined), the Ki came out at 5.5 nM in experiment [6], 8.3 nM in experiment [9] and 107 nM in experiment [13].

With `O=C1C2CCCN2C(=O)N1CCN1CCN(c2ccc(F)cc2)CC1` (centres undefined), the results for the Ki in experiment [6], in [9] and in experiment [13] were greater than 10000 nM, greater than 1000 nM and greater than 10000 nM, respectively.

Usually ED50 stands for the midpoint of the dose-response relation. Higher therefore signals weaker potency. A word on the Ki: it is a dissociation constant, usually derived from enzyme kinetics or from competition with a known ligand. Lower therefore signals higher affinity.

The values are drawn from ChEMBL document CHEMBL1129734, “Synthesis and structure-activity relationships of a new model of arylpiperazines. 1. 2-[[4-(o-methoxyphenyl)piperazin-1-yl]methyl]-1, 3-dioxoperhydroimidazo[1,5-alpha]pyridine: a selective 5-HT1A receptor agonist” (J Med Chem, 1996).
